{"source": "patent US20170274026A1", "about": "“METHOD OF MAKING TRITERPENOIDS FROM PETRI DISH CULTUREDANTRODIA CINNAMOMEA” (Ultra-Microrigin Biomedical Technology Co., Ltd., priority 2016, published 2017)", "origin": "cited, not measured here", "test_system": "cancer cells", "settings": "Toxicology in Vitro and International Journal of Gerontology"}
{"smiles": "C=C(CC[C@@H](C(=O)O)[C@H]1C[C@H](O)[C@@]2(C)C3=CC[C@H]4C(C)(C)[C@@H](O)CC[C@]4(C)C3=CC[C@]12C)C(C)C", "note": "[MMH01, dehydrosulphurenic acid]", "values": [{"measurement": "anti-tumor effect and repressing the growth of cancer cells", "result": "effective in anti-tumor and repressing the growth of cancer cells"}]}
